Source: the supplement of paper PMC13380429

Assays:
Calu-3 [1] = assay: drug sensitivity score (DSS) for viability; higher = more toxic; extreme values may be limits of the assay; details: 72 h
Caco-2 [2] = assay: as above; details: 72 h
U2OS [3] = assay: as above; details: 72 h
HepG2 [4] = assay: as above; details: 72 h
[5] = system: A549-ACE2 infected with SARS-CoV-2; assay: SARS-CoV-2 infection rate relative to DMSO; higher = more infection; details: 24 h
[6] = system: A549-ACE2 infected with SARS-CoV-2; assay: cell count relative to DMSO; higher = less toxic; details: 24 h
Calu-3 [7] = assay: cell viability relative to DMSO; higher = less toxic; details: 72 h
Caco-2 [8] = assay: as above; details: 72 h
U2OS [9] = assay: as above; details: 72 h
HepG2 [10] = assay: as above; details: 72 h
[11] = system: A549-ACE2 infected with SARS-CoV-2; assay: morphology score (similarity to uninfected cells); higher = more like uninfected cells; details: 24 h
A549-ACE2 = assay: drug-induced phospholipidosis relative to tamoxifen; higher = more phospholipidosis
Calu-3 [12] = assay: relative viability EC50 (midpoint between 100% and the lowest measured viability); higher = less toxic; details: 72 h
Caco-2 [13] = assay: as above; details: 72 h
U2OS [14] = assay: as above; details: 72 h
HepG2 [15] = assay: as above; details: 72 h
Vero E6 [16] = assay: drug sensitivity score (DSS) for viability; higher = more toxic; extreme values may be limits of the assay; details: 72 h
Vero E6 [17] = assay: cell viability relative to DMSO; higher = less toxic; details: 72 h
Vero E6 [18] = assay: relative viability EC50 (midpoint between 100% and the lowest measured viability); higher = less toxic; details: 72 h

## OCCN1C[C@H](O)[C@@H](O)[C@H](O)[C@H]1CO [miglitol]
Calu-3 [1]
  drug sensitivity score: 0
Caco-2 [2]
  drug sensitivity score: 0
U2OS [3]
  drug sensitivity score: 0
HepG2 [4]
  drug sensitivity score: 0
[5]; 0.3 µM
  SARS-CoV-2 infection rate: 94%
[5]; 3 µM
  SARS-CoV-2 infection rate: 102%
[5]; 10 µM
  SARS-CoV-2 infection rate: 103%
[5]; 30 µM
  SARS-CoV-2 infection rate: 111%
[6]; 0.3 µM
  cell count: 106%
[6]; 3 µM
  cell count: 100%
[6]; 10 µM
  cell count: 100%
[6]; 30 µM
  cell count: 89%
Calu-3 [7]; 1 nM
  cell viability: 97.8%
Calu-3 [7]; 10 nM
  cell viability: 95.7%
Calu-3 [7]; 100 nM
  cell viability: 95.1%
Calu-3 [7]; 1000 nM
  cell viability: 110%
Calu-3 [7]; 10000 nM
  cell viability: 96.2%
Caco-2 [8]; 1 nM
  cell viability: 98.8%
Caco-2 [8]; 10 nM
  cell viability: 99.2%
Caco-2 [8]; 100 nM
  cell viability: 96.1%
Caco-2 [8]; 1000 nM
  cell viability: 101%
Caco-2 [8]; 10000 nM
  cell viability: 94.7%
U2OS [9]; 1 nM
  cell viability: 105%
U2OS [9]; 10 nM
  cell viability: 99%
U2OS [9]; 100 nM
  cell viability: 102%
U2OS [9]; 1000 nM
  cell viability: 98.5%
U2OS [9]; 10000 nM
  cell viability: 103%
HepG2 [10]; 1 nM
  cell viability: 94.6%
HepG2 [10]; 10 nM
  cell viability: 114%
HepG2 [10]; 100 nM
  cell viability: 89.6%
HepG2 [10]; 1000 nM
  cell viability: 103%
HepG2 [10]; 10000 nM
  cell viability: 101%
[11]; 0.3 µM
  morphology score: 0.36
[11]; 3 µM
  morphology score: 0.01
[11]; 10 µM
  morphology score: 0.02
[11]; 30 µM
  morphology score: -0.07
A549-ACE2; 0.3 µM, 24 h
  drug-induced phospholipidosis: 3.38%
A549-ACE2; 0.3 µM, 48 h
  drug-induced phospholipidosis: 2.53%
A549-ACE2; 0.3 µM, 72 h
  drug-induced phospholipidosis: 3.37%
A549-ACE2; 0.833333 µM, 24 h
  drug-induced phospholipidosis: -3.48%
A549-ACE2; 0.833333 µM, 48 h
  drug-induced phospholipidosis: -2.84%
A549-ACE2; 0.833333 µM, 72 h
  drug-induced phospholipidosis: -2.2%
A549-ACE2; 3.33333 µM, 24 h
  drug-induced phospholipidosis: -1.06%
A549-ACE2; 3.33333 µM, 48 h
  drug-induced phospholipidosis: 1.36%
A549-ACE2; 3.33333 µM, 72 h
  drug-induced phospholipidosis: 1.06%
A549-ACE2; 6.66667 µM, 24 h
  drug-induced phospholipidosis: -1.04%
A549-ACE2; 6.66667 µM, 48 h
  drug-induced phospholipidosis: 1.25%
A549-ACE2; 6.66667 µM, 72 h
  drug-induced phospholipidosis: -0.466%
A549-ACE2; 10 µM, 24 h
  drug-induced phospholipidosis: -2.08%
A549-ACE2; 10 µM, 48 h
  drug-induced phospholipidosis: 2.47%
A549-ACE2; 10 µM, 72 h
  drug-induced phospholipidosis: 0.978%
A549-ACE2; 30 µM, 24 h
  drug-induced phospholipidosis: -1.27%
A549-ACE2; 30 µM, 48 h
  drug-induced phospholipidosis: 2.29%
A549-ACE2; 30 µM, 72 h
  drug-induced phospholipidosis: 2.7%
Calu-3 [12]
  relative viability EC50: > 10 µM
Caco-2 [13]
  relative viability EC50: > 10 µM
U2OS [14]
  relative viability EC50: > 10 µM
HepG2 [15]
  relative viability EC50: > 10 µM

## c1cnc(N2CCN(Cc3ccc4c(c3)OCO4)CC2)nc1 [piribedil]
Calu-3 [1]
  drug sensitivity score: 0
Caco-2 [2]
  drug sensitivity score: 0
U2OS [3]
  drug sensitivity score: 0
HepG2 [4]
  drug sensitivity score: 0
Vero E6 [16]
  drug sensitivity score: 0
[5]; 0.3 µM
  SARS-CoV-2 infection rate: 109%
[5]; 3 µM
  SARS-CoV-2 infection rate: 104%
[5]; 10 µM
  SARS-CoV-2 infection rate: 99%
[5]; 30 µM
  SARS-CoV-2 infection rate: 88%
[6]; 0.3 µM
  cell count: 98%
[6]; 3 µM
  cell count: 96%
[6]; 10 µM
  cell count: 97%
[6]; 30 µM
  cell count: 104%
Calu-3 [7]; 1 nM
  cell viability: 110%
Calu-3 [7]; 10 nM
  cell viability: 98%
Calu-3 [7]; 100 nM
  cell viability: 99.3%
Calu-3 [7]; 1000 nM
  cell viability: 89.5%
Calu-3 [7]; 10000 nM
  cell viability: 102%
Caco-2 [8]; 1 nM
  cell viability: 106%
Caco-2 [8]; 10 nM
  cell viability: 96.7%
Caco-2 [8]; 100 nM
  cell viability: 95.8%
Caco-2 [8]; 1000 nM
  cell viability: 92.9%
Caco-2 [8]; 10000 nM
  cell viability: 90.3%
U2OS [9]; 1 nM
  cell viability: 104%
U2OS [9]; 10 nM
  cell viability: 98.5%
U2OS [9]; 100 nM
  cell viability: 103%
U2OS [9]; 1000 nM
  cell viability: 98%
U2OS [9]; 10000 nM
  cell viability: 99.9%
HepG2 [10]; 1 nM
  cell viability: 98.9%
HepG2 [10]; 10 nM
  cell viability: 112%
HepG2 [10]; 100 nM
  cell viability: 98.9%
HepG2 [10]; 1000 nM
  cell viability: 107%
HepG2 [10]; 10000 nM
  cell viability: 102%
Vero E6 [17]; 1 nM
  cell viability: 100%
Vero E6 [17]; 10 nM
  cell viability: 105%
Vero E6 [17]; 100 nM
  cell viability: 100%
Vero E6 [17]; 1000 nM
  cell viability: 98.1%
Vero E6 [17]; 10000 nM
  cell viability: 94.4%
[11]; 0.3 µM
  morphology score: -0.23
[11]; 3 µM
  morphology score: -0.1
[11]; 10 µM
  morphology score: -0.05
[11]; 30 µM
  morphology score: 0.26
A549-ACE2; 0.3 µM, 24 h
  drug-induced phospholipidosis: 0.73%
A549-ACE2; 0.3 µM, 48 h
  drug-induced phospholipidosis: 1.04%
A549-ACE2; 0.3 µM, 72 h
  drug-induced phospholipidosis: 3.05%
A549-ACE2; 0.833333 µM, 24 h
  drug-induced phospholipidosis: -0.78%
A549-ACE2; 0.833333 µM, 48 h
  drug-induced phospholipidosis: -0.48%
A549-ACE2; 0.833333 µM, 72 h
  drug-induced phospholipidosis: -0.292%
A549-ACE2; 3.33333 µM, 24 h
  drug-induced phospholipidosis: -1.88%
A549-ACE2; 3.33333 µM, 48 h
  drug-induced phospholipidosis: -0.16%
A549-ACE2; 3.33333 µM, 72 h
  drug-induced phospholipidosis: -0.287%
A549-ACE2; 6.66667 µM, 24 h
  drug-induced phospholipidosis: -1.98%
A549-ACE2; 6.66667 µM, 48 h
  drug-induced phospholipidosis: 0.15%
A549-ACE2; 6.66667 µM, 72 h
  drug-induced phospholipidosis: 2.2%
A549-ACE2; 10 µM, 24 h
  drug-induced phospholipidosis: -0.73%
A549-ACE2; 10 µM, 48 h
  drug-induced phospholipidosis: 0.48%
A549-ACE2; 10 µM, 72 h
  drug-induced phospholipidosis: 1.92%
A549-ACE2; 30 µM, 24 h
  drug-induced phospholipidosis: 4.07%
A549-ACE2; 30 µM, 48 h
  drug-induced phospholipidosis: 5.06%
A549-ACE2; 30 µM, 72 h
  drug-induced phospholipidosis: 7.77%
Calu-3 [12]
  relative viability EC50: > 10 µM
Caco-2 [13]
  relative viability EC50: > 10 µM
U2OS [14]
  relative viability EC50: > 10 µM
HepG2 [15]
  relative viability EC50: > 10 µM
Vero E6 [18]
  relative viability EC50: > 10 µM

## N=C(N)NC(=O)c1cnn(-c2cccc3ncccc23)c1C1CC1 [zoniporide]
Calu-3 [1]
  drug sensitivity score: 0
Caco-2 [2]
  drug sensitivity score: 0
U2OS [3]
  drug sensitivity score: 0
HepG2 [4]
  drug sensitivity score: 0
Vero E6 [16]
  drug sensitivity score: 0
Calu-3 [7]; 1 nM
  cell viability: 99.8%
Calu-3 [7]; 10 nM
  cell viability: 95.1%
Calu-3 [7]; 100 nM
  cell viability: 93.8%
Calu-3 [7]; 1000 nM
  cell viability: 94.5%
Calu-3 [7]; 10000 nM
  cell viability: 99.6%
Caco-2 [8]; 1 nM
  cell viability: 89.6%
Caco-2 [8]; 10 nM
  cell viability: 91.8%
Caco-2 [8]; 100 nM
  cell viability: 101%
Caco-2 [8]; 1000 nM
  cell viability: 102%
Caco-2 [8]; 10000 nM
  cell viability: 95%
U2OS [9]; 1 nM
  cell viability: 98.8%
U2OS [9]; 10 nM
  cell viability: 101%
U2OS [9]; 100 nM
  cell viability: 104%
U2OS [9]; 1000 nM
  cell viability: 100%
U2OS [9]; 10000 nM
  cell viability: 98.6%
HepG2 [10]; 1 nM
  cell viability: 89.9%
HepG2 [10]; 10 nM
  cell viability: 99.2%
HepG2 [10]; 100 nM
  cell viability: 105%
HepG2 [10]; 1000 nM
  cell viability: 103%
HepG2 [10]; 10000 nM
  cell viability: 101%
Vero E6 [17]; 1 nM
  cell viability: 92.7%
Vero E6 [17]; 10 nM
  cell viability: 102%
Vero E6 [17]; 100 nM
  cell viability: 94.9%
Vero E6 [17]; 1000 nM
  cell viability: 97.5%
Vero E6 [17]; 10000 nM
  cell viability: 104%
Calu-3 [12]
  relative viability EC50: > 10 µM
Caco-2 [13]
  relative viability EC50: > 10 µM
U2OS [14]
  relative viability EC50: > 10 µM
HepG2 [15]
  relative viability EC50: > 10 µM
Vero E6 [18]
  relative viability EC50: > 10 µM
